Measurements published in patent US20240279207A1, “SUBSTITUTED ACYL SULFONAMIDES FOR TREATING CANCER” (The Broad Institute, Inc., priority 2020, published 2024).
pIC50: −log10 of the molar value.

What was measured:
[1] = target: T1, Recombinant human His-tagged Kat6a protein (amino acids 194-810) (Homo sapiens, UniProt Q92794); test: Kat6a activity assay (TR-FRET, acetylation of Histone-H4-derived peptide); format: biochemical; details: 60 mins at 22° C., 220 nM H4 peptide, 600 nM Acetyl Coenzyme A, read-out: KAT6A - DPF/HAT domain IC50 [mol/l] (arithmetic mean)
T1 construct: Kat6a protein (amino acids 194-810); His
T1 sequence (Q92794 194-810): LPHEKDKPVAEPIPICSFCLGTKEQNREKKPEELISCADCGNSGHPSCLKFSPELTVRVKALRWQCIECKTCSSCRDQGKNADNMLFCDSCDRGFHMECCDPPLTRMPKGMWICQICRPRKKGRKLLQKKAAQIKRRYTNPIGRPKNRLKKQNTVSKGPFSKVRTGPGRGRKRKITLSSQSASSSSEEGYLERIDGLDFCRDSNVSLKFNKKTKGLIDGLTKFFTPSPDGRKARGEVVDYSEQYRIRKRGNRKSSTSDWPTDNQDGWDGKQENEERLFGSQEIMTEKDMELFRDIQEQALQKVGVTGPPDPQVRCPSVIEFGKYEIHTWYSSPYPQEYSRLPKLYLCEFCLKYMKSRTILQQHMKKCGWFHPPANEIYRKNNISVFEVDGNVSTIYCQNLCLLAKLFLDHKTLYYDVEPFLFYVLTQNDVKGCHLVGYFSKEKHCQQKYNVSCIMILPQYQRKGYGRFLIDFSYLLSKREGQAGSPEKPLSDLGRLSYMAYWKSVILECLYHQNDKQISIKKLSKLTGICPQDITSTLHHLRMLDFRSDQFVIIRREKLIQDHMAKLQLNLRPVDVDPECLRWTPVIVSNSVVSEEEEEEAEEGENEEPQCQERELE

[2] = tested on: ESR1 transcription in MVLN cells; test: MVLN reporter assay: repression of ESR1 transcription (luciferase signal); format: cell-based; details: Homo sapiens, MVLN, 24 h, luciferase signal after 24 h, read-out: MVLN reporter assay, IC50 [M] (arithmetic mean)
Method in brief: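 To control for cell loss, Alamar Blue (2 h, 530/590 nm) precedes the 24 h luciferase measurement. The reporter is an ERE from the Xenopus vitellogenin A2 gene driving luciferase, stably transfected into ER-expressing MVLN cells; duplicate samples.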

[3] = tested on: MDA-MB-436 cells; test: MDA-MB-436 proliferation assay (negative control cell line); format: cell-based; details: Homo sapiens, 144 h, Alamar Blue, read-out: MDA-MB-436 proliferation assay, EC50 [M] (arithmetic mean)
Description: For compound characterization cell survival assays were routinely run in two cell lines. ZR-75-1 is a breast carcinoma cell line containing a focal KAT6A amplification and high KAT6A protein expression. Proliferation of this cell line is inhibited upon treatment with KAT6A inhibitors. As a negative control cell line MDA-MB-436 were used. These cells carry a […] deletion of the KAT6A gene, have a low KAT6A protein expression and are not growth inhibited upon treatment with KAT6A inhibitors.
For measurements cell lines were plated at the below indicated concentration per […] in 96-well plates in a humidified incubator at 37° C. and 5% CO2.
MDA-MB-436 (CLS, 300278; breast adenocarcinoma); 3000 cells per well; culture medium: DMEM/Ham's F12 (Biochrom #FG 4815) medium containing 2.5% FBS (Biochrom #S0615).
Each sample was prepared as triplicate and rim wells were excluded. Plates were incubated at 37° C. and 5% CO2 for 144 h. Cell viability was measured by adding 10 μL of Alamar Blue Reagent (Invitrogen #DAL 1100) and plates were incubated for 2 h at 37° C. and 5% CO2. Fluorescence was measured at 590 nm wavelength with a Tecan Spark or Victor X3 MTP-Reader (PerkinElmer).

CC1CCN1c1cc(F)c2cc(C(=O)NS(=O)(=O)c3ccccc3)oc2c1 (racemic) [Example 220, N-(Benzenesulfonyl)-4-fluoro-6-(2-methylazetidin-1-yl)benzofuran-2-carboxamide (rac)]
pIC50 [1]: 6.01 | IC50 [2]: 6.23e-06 M | EC50 [3]: > 2e-05 M

Cc1ccc2cccc(S(=O)(=O)NC(=O)c3cc4c(F)cc(N5CCC5C)cc4o3)c2n1 (racemic) [Example 221, 4-Fluoro-6-(2-methylazetidin-1-yl)-N-[(2-methyl-8-quinolyl)sulfonyl]benzofuran-2-carboxamide (rac)]
pIC50 [1]: 7.21 | IC50 [2]: 3.82e-07 M | EC50 [3]: > 2e-05 M

CC1CCN1c1cc(F)c2cc(C(=O)NS(=O)(=O)c3ccccc3-c3ccccc3)oc2c1 (racemic) [Example 222, 4-Fluoro-6-(2-methylazetidin-1-yl)-N-(2-phenylphenyl)sulfonyl-benzofuran-2-carboxamide (rac)]
pIC50 [1]: 6.89 | IC50 [2]: 1.44e-06 M | EC50 [3]: > 2e-05 M

CCOc1ccccc1S(=O)(=O)NC(=O)c1cc2c(F)cc(N3CCC3C)cc2o1 (racemic) [Example 223, N-(2-Ethoxyphenyl)sulfonyl-4-fluoro-6-(2-methylazetidin-1-yl)benzofuran-2-carboxamide (rac)]
pIC50 [1]: 6.72 | IC50 [2]: 7.22e-07 M | EC50 [3]: > 2e-05 M

COc1ccc(N2CCN(C)CC2)cc1S(=O)(=O)NC(=O)c1cc2c(F)cc(N3CCC3)cc2o1 [Example 202, 6-(Azetidin-1-yl)-4-fluoro-N-[2-methoxy-5-(4-methylpiperazin-1-yl)benzene-1-sulfonyl]-1-benzofuran-2-carboxamide]
pIC50 [1]: 7.07 | IC50 [2]: 1.04e-06 M

COc1ccc(C2=CCN(C)CC2)cc1S(=O)(=O)NC(=O)c1cc2c(F)cc(N3CCC3)cc2o1 [Example 203, 6-(Azetidin-1-yl)-4-fluoro-N-[2-methoxy-5-(1-methyl-1,2,3,6-tetrahydropyridin-4-yl)benzene-1-sulfonyl]-1-benzofuran-2-carboxamide]
pIC50 [1]: 6.81 | IC50 [2]: 3.78e-06 M

CCOc1c(F)cccc1S(=O)(=O)NC(=O)c1cc2c(F)cc(N3CCC3)cc2o1 [Example 206, 6-(azetidin-1-yl)-N-(2-ethoxy-3-fluoro-phenyl)sulfonyl-4-fluoro-benzofuran-2-carboxamide]
pIC50 [1]: 6.96 | IC50 [2]: 4.44e-07 M

CCOc1cc(F)ccc1S(=O)(=O)NC(=O)c1cc2c(F)cc(N3CCC3)cc2o1 [Example 208, 6-(Azetidin-1-yl)-N-(2-ethoxy-4-fluoro-phenyl)sulfonyl-4-fluoro-benzofuran-2-carboxamide]
pIC50 [1]: 7.34 | IC50 [2]: 7.78e-08 M

CCOc1ccc(F)cc1S(=O)(=O)NC(=O)c1cc2c(F)cc(N3CCC3)cc2o1 [Example 210, 6-(Azetidin-1-yl)-N-(2-ethoxy-5-fluoro-phenyl)sulfonyl-4-fluoro-benzofuran-2-carboxamide]
pIC50 [1]: 7.28 | IC50 [2]: 1.13e-07 M

CCOc1ccc(Oc2ccccc2)cc1S(=O)(=O)NC(=O)c1cc2c(F)cc(N3CCC3)cc2o1 [Example 211, 6-(Azetidin-1-yl)-N-(2-ethoxy-5-phenoxy-phenyl)sulfonyl-4-fluoro-benzofuran-2-carboxamide]
pIC50 [1]: 8.12 | IC50 [2]: 2.44e-07 M

CCOc1ccc(OC(F)(F)F)cc1S(=O)(=O)NC(=O)c1cc2c(F)cc(N3CCC3)cc2o1 [Example 212, 6-(Azetidin-1-yl)-N-[2-ethoxy-5-(trifluoromethoxy)phenyl]sulfonyl-4-fluoro-benzofuran-2-carboxamide]
pIC50 [1]: 7.44 | IC50 [2]: 1.59e-07 M

CC1(C)CCN1c1cc(F)c2cc(C(=O)NS(=O)(=O)c3ccccc3-c3ccccc3)oc2c1 [Example 217, 6-(2,2-Dimethylazetidin-1-yl)-4-fluoro-N-(2-phenylphenyl)sulfonyl-benzofuran-2-carboxamide]
IC50 [2]: 1.05e-05 M | EC50 [3]: > 2e-05 M

CC(C)c1ccc(OC2CCC2)c(S(=O)(=O)NC(=O)c2cc3c(F)cc(N4CCC4)cc3o2)c1 [Example 230, 6-(Azetidin-1-yl)-N-[(2-cyclobutoxy-5-isopropylphenyl)sulfonyl]-4-fluorobenzofuran-2-carboxamide]
pIC50 [1]: 8.11 | IC50 [2]: 8.72e-08 M
